Measured values: PubChem BioAssay AID248 (DTP/NCI, 2004)
“And” between values parts separate entries of the source, which are not always exact repeats. Equal values may be shown once. Toxic doses and inconclusive results are not listed. Cut-off read from the data, not from the text of the source: active = T/C of 150% or more; inactive = T/C below 125%.

Tested on: L1210 leukemia ip in BDF1 mice, survival T/C
Test: NCI In Vivo Anticancer Drug Screen. Data for tumor model L1210 Leukemia (intraperitoneal) in B6D2F1 (BDF1) mice
Conditions: endpoint: mean survival time, higher = longer survival
Summary of the method: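 Transplantable tumor model; survival measured in treated vs vehicle control mice. Value = treated/control.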

[1] = dose: 50.0 mg/kg/injection, schedule: Q01DX009 (ip), vehicle: Klucel (hydroxypropylcellulose) (HPC)
[2] = dose: 100.0 mg/kg/injection, schedule: Q01DX009 (ip), vehicle: Klucel (hydroxypropylcellulose) (HPC)
[3] = dose: 200.0 mg/kg/injection, schedule: Q01DX009 (ip), vehicle: Klucel (hydroxypropylcellulose) (HPC)
[4] = dose: 100.0 mg/kg/injection, schedule: Q04DX003 (ip), vehicle: saline
[5] = dose: 100.0 mg/kg/injection, schedule: Q01DX001 (ip), vehicle: saline
[6] = dose: 200.0 mg/kg/injection, schedule: Q01DX001 (ip), vehicle: saline
[7] = dose: 400.0 mg/kg/injection, schedule: Q01DX001 (ip), vehicle: saline
[8] = dose: 100.0 mg/kg/injection, schedule: Q01DX009 (ip), vehicle: saline with Tween-80
[9] = dose: 200.0 mg/kg/injection, schedule: Q01DX009 (ip), vehicle: saline with Tween-80
[10] = dose: 100.0 mg/kg/injection, schedule: Q01DX001 (ip), vehicle: carboxymethylcellulose (CMC)
[11] = dose: 200.0 mg/kg/injection, schedule: Q01DX001 (ip), vehicle: carboxymethylcellulose (CMC)
[12] = dose: 400.0 mg/kg/injection, schedule: Q01DX001 (ip), vehicle: carboxymethylcellulose (CMC)
[13] = dose: 50.0 mg/kg/injection, schedule: Q04DX003 (ip), vehicle: saline with Tween-80
[14] = dose: 50.0 mg/kg/injection, schedule: Q01DX009 (ip), vehicle: saline
[15] = dose: 100.0 mg/kg/injection, schedule: Q01DX009 (ip), vehicle: saline
[16] = dose: 50.0 mg/kg/injection, schedule: Q01DX001 (ip), vehicle: saline

Measured: T/C

Cc1cccc(NC(=O)NCC(=O)NNC(=O)Nc2cc([N+](=O)[O-])ccc2C)n1
inactive: [1] 100 % of control | [2] 89 % of control | [3] 88 % of control

CCCCCCCCCCCCCCCCCC[n+]1ccc(C(N)=O)cc1
inactive: [4] 91 % of control

CCCCNC(=O)NC/C(Br)=C/Br
inactive: dose: 75.0 mg/kg/injection, schedule: Q01DX009 (ip), vehicle: Klucel (hydroxypropylcellulose) (HPC) 101 % of control | dose: 100.0 mg/kg/injection, schedule: Q04DX003 (ip), vehicle: Klucel (hydroxypropylcellulose) (HPC) 98 % of control | dose: 150.0 mg/kg/injection, schedule: Q01DX009 (ip), vehicle: Klucel (hydroxypropylcellulose) (HPC) 100 % of control | dose: 200.0 mg/kg/injection, schedule: Q04DX003 (ip), vehicle: Klucel (hydroxypropylcellulose) (HPC) 96 % of control | dose: 300.0 mg/kg/injection, schedule: Q01DX009 (ip), vehicle: Klucel (hydroxypropylcellulose) (HPC) 97 % of control | dose: 400.0 mg/kg/injection, schedule: Q04DX003 (ip), vehicle: Klucel (hydroxypropylcellulose) (HPC) 93 % of control

ClC1=C(Cl)C2(Cl)C3C4C=CC(C4)C3N1C2(Cl)Cl (stereo unspecified)
inactive: dose: 50.0 mg/kg/injection, schedule: Q01DX001 (ip), vehicle: saline with Tween-80 98 % of control | dose: 100.0 mg/kg/injection, schedule: Q01DX001 (ip), vehicle: saline with Tween-80 95 % of control

Nc1ccc(N=Nc2ccccc2)c2cccnc12 (tested in a mixture with another compound)
inactive: dose: 100.0 mg/kg/injection, schedule: Q04DX003 (sc), vehicle: olive oil, sesame oil, peanut oil 100 % of control | dose: 200.0 mg/kg/injection, schedule: Q04DX003 (sc), vehicle: olive oil, sesame oil, peanut oil 100 % of control | dose: 400.0 mg/kg/injection, schedule: Q04DX003 (sc), vehicle: olive oil, sesame oil, peanut oil 117 % of control

CCCc1cc(CN2CCOCC2)c(O)c(CN2CCOCC2)c1O
inactive: [5] 91 % of control | [6] 93 % of control | [7] 95 % of control

Cc1c2c(cc3c1OCN(C1CCCCC1)C3)CN(C1CCCCC1)CO2
inactive: [5] 98 % of control | [6] 90 % of control

O=c1[nH]cnc2cc(Cl)ccc12
inactive: [1] 91 % of control | [2] 102 % of control | [3] 100 % of control

CCCCCCCCCC(=O)NN1CCOCC1
inactive: [8] 105 % of control | [9] 89 % of control | dose: 400.0 mg/kg/injection, schedule: Q01DX009 (ip), vehicle: saline with Tween-80 89 % of control

CCOC(=O)C(Br)(C(=O)OCC)C(=O)c1cc(-c2ccc(Cl)c(Cl)c2)nc2c(Cl)cc(Cl)cc12
inactive: dose: 100.0 mg/kg/injection, schedule: Q01DX001 (ip), vehicle: Klucel (hydroxypropylcellulose) (HPC) 103 % of control | [2] 95 % of control | dose: 200.0 mg/kg/injection, schedule: Q01DX001 (ip), vehicle: Klucel (hydroxypropylcellulose) (HPC) 111 % of control | [3] 96 % of control | dose: 400.0 mg/kg/injection, schedule: Q01DX001 (ip), vehicle: Klucel (hydroxypropylcellulose) (HPC) 105 % of control | dose: 400.0 mg/kg/injection, schedule: Q01DX009 (ip), vehicle: Klucel (hydroxypropylcellulose) (HPC) 95 % of control

COc1ccc(/C(C#N)=C2C=C/C(=N/O)c3ccccc3\2)cc1
inactive: dose: 50.0 mg/kg/injection, schedule: Q01DX001 (ip), vehicle: carboxymethylcellulose (CMC) 92 % of control | [10] 92 % of control | [11] 87 % of control | [12] 89 % of control

Nc1ccc(S(=O)(=O)Nc2ccc(Nc3c4ccccc4nc4ccccc34)cc2)cc1
inactive: dose: 3.0 mg/kg/injection, schedule: Q01DX009 (ip), vehicle: saline with Tween-80 122 % of control | dose: 6.0 mg/kg/injection, schedule: Q01DX009 (ip), vehicle: saline with Tween-80 120 % of control

CCCCNC(C)(C)COC(=O)/C=C/c1ccc(OCCCC)cc1
inactive: [13] 92 % of control | [5] 104 % of control | dose: 100.0 mg/kg/injection, schedule: Q01DX015 (ip), vehicle: saline 86 % of control | dose: 100.0 mg/kg/injection, schedule: Q04DX003 (ip), vehicle: saline with Tween-80 94 % of control | [6] 102 % of control | dose: 200.0 mg/kg/injection, schedule: Q01DX015 (ip), vehicle: saline 89 % of control | dose: 200.0 mg/kg/injection, schedule: Q04DX003 (ip), vehicle: saline with Tween-80 105 % of control

O=C1OC(=O)c2c3c(c4c(c21)CCC4)CCC3
inactive: [14] 107 % of control | [5] 100 % of control | [15] 93 % of control | [4] 101 % of control | [6] 91 % of control | dose: 200.0 mg/kg/injection, schedule: Q01DX009 (ip), vehicle: saline 94 % of control | dose: 200.0 mg/kg/injection, schedule: Q04DX003 (ip), vehicle: saline 96 % of control | [7] 97 % of control

Nc1nc(N)c(-c2ccc(Cl)cc2)c(C=O)n1
inactive: [10] 108 % of control | [11] 87 % of control | [12] 108 % of control

O=C(O)CSc1ccc([N+](=O)[O-])cc1[N+](=O)[O-]
inactive: dose: 100.0 mg/kg/injection, schedule: Q04DX002 (ip), vehicle: Klucel (hydroxypropylcellulose) (HPC) 100 % of control | dose: 200.0 mg/kg/injection, schedule: Q04DX002 (ip), vehicle: Klucel (hydroxypropylcellulose) (HPC) 96 % of control | dose: 400.0 mg/kg/injection, schedule: Q04DX002 (ip), vehicle: Klucel (hydroxypropylcellulose) (HPC) 96 % of control

O=S(=O)(Cl)OC1C2COC(O2)C(OS(=O)(=O)Cl)C1OS(=O)(=O)Cl (stereo unspecified)
inactive: dose: 12.5 mg/kg/injection, schedule: Q04DX003 (ip), vehicle: saline with Tween-80 102 % of control | dose: 25.0 mg/kg/injection, schedule: Q04DX003 (ip), vehicle: saline with Tween-80 92 % of control | [13] 96 % of control

c1ccc(-n2nnnc2-c2nnnn2-c2ccccc2)cc1
inactive: [5] 98 % of control | [6] 98 % of control | [7] 101 % of control

Cn1cc2c(=O)n(O)c(=O)[nH]c2n1
inactive: [16] 106 % of control | [5] 100 % of control | [6] 102 % of control | [7] 102 % of control

CC(=O)OC1CCC2(C)C(=CCC3C2CCC2(C)C3CC3C(c4ccccc4Br)=NN(c4ccccc4)C32C#N)C1 (stereo unspecified)
inactive: dose: 3.0 mg/kg/injection, schedule: Q04DX002 (ip), vehicle: Klucel (hydroxypropylcellulose) (HPC) 106 % of control | dose: 6.0 mg/kg/injection, schedule: Q04DX002 (ip), vehicle: Klucel (hydroxypropylcellulose) (HPC) 94 % of control and 107 % of control | dose: 12.0 mg/kg/injection, schedule: Q04DX002 (ip), vehicle: Klucel (hydroxypropylcellulose) (HPC) 100 % of control | dose: 25.0 mg/kg/injection, schedule: Q04DX002 (ip), vehicle: Klucel (hydroxypropylcellulose) (HPC) 104 % of control | dose: 50.0 mg/kg/injection, schedule: Q04DX002 (ip), vehicle: Klucel (hydroxypropylcellulose) (HPC) 114 % of control

O=C1OC2CC1(O)CC(O)C2O (stereo unspecified)
inactive: dose: 50.0 mg/kg/injection, schedule: Q01DX009 (ip), vehicle: saline with Tween-80 92 % of control | [8] 94 % of control | [9] 92 % of control

C[N+]1(C)C2C=CCC1CSC2 (stereo unspecified)
inactive: dose: 15.0 mg/kg/injection, schedule: Q01DX001 (ip), vehicle: saline 110 % of control

ClC12CCC(Cl)(CC1)CC2
inactive: dose: 75.0 mg/kg/injection, schedule: Q01DX001 (ip), vehicle: acetone 103 % of control

NC(=O)c1cc(Cl)ccn1
inactive: dose: 100.0 mg/kg/injection, schedule: Q04DX002 (ip), vehicle: saline with Tween-80 101 % of control | dose: 200.0 mg/kg/injection, schedule: Q04DX002 (ip), vehicle: saline with Tween-80 99 % of control

N#CCCSC(=N)N
inactive: dose: 25.0 mg/kg/injection, schedule: Q01DX009 (ip), vehicle: saline 107 % of control | dose: 25.0 mg/kg/injection, schedule: Q04DX003 (ip), vehicle: saline 96 % of control | [14] 118 % of control | dose: 50.0 mg/kg/injection, schedule: Q04DX003 (ip), vehicle: saline 102 % of control | [5] 95 % of control | [15] 103 % of control | [4] 107 % of control

C[C@]12CC[C@H]3[C@@H](CC[C@]4(O)C[C@@H](O)CC[C@]34CO)[C@@]1(O)CC[C@@H]2C1=CC(=O)OC1
inactive: [16] 106 % of control | [5] 100 % of control | [6] 100 % of control
